In patent publication US20050267158A1, “Polymorphic and amorphous forms of 2,5-dimethyl-2H-pyrazole-3-carboxylic acid {2-fluoro-5-[3-((E)-2 pyridin-2-YL-vinyl)-1H-indazol-6-ylamino]-phenyl}-amide” (AGOURON PHARMACEUTICALS, INC., priority 2004, published 2005):
Values after ≈ are worked out from the molar mass of the structure shown. One block for each compound: values may come before it.

Key:
Assay type in all cases: physicochemical
[1] = Physical and chemical storage stability
Description: (§1) The present invention provides several polymorph crystalline forms and an amorphous form of the compound of Formula I. Each crystalline or amorphous form of the compound can be characterized by one or more of the following: X-ray powder diffraction pattern (i.e., X-ray diffraction peaks at various diffraction angles (2θ)), melting point onset (and onset of dehydration for hydrated forms) as illustrated by endotherms of a Differential Scanning Calorimetry (DSC) thermogram, Raman spectral diagram pattern, aqueous solubility, light stability under International Conference on Harmonization (ICH) high intensity light conditions, and physical and chemical storage stability.

[2] = Light stability under ICH high intensity light conditions
Description: as §1

[3] = Aqueous solubility; conditions: for solubility: thermodynamic from solid
Description: as §1

[4] = Hygroscopicity / form conversion under ambient humidity; conditions: for conversion of solid form: ambient humidity
[5] = aqueous medium, pH 2, pH 2, aqueous buffer, pH 2

SMILES: Cc1cc(C(=O)Nc2cc(Nc3ccc4c(/C=C/c5ccccn5)n[nH]c4c3)ccc2F)n(C)n1 [Form I, 2,5-Dimethyl-2H-pyrazole-3-carboxylic acid {2-fluoro-5-[3-((E)-2-pyridin-2-yl-vinyl)-1H-indazol-6-ylamino]-phenyl}-amide]
time chemically stable ([1]; 80° C. and 40° C./75% RH): at least 14 days | light stability [2]: light-stable | solubility ([3]; aqueous medium (pH 7.4), pH 7.4, aqueous buffer, pH 7.4): ~0.4 µg/mL (≈ 0.856 µM) | solubility [3, 5]: ~39 µg/mL (≈ 83.4 µM)

SMILES: Cc1cc(C(=O)Nc2cc(Nc3ccc4c(/C=C/c5ccccn5)n[nH]c4c3)ccc2F)n(C)n1 [Form II, 2,5-Dimethyl-2H-pyrazole-3-carboxylic acid {2-fluoro-5-[3-((E)-2-pyridin-2-yl-vinyl)-1H-indazol-6-ylamino]-phenyl}-amide]
light stability [2]: light-stable | solubility ([3]; aqueous medium at pH 2, pH 2, aqueous buffer, pH 2): ~19 µg/mL (≈ 40.6 µM) | solubility ([3]; aqueous medium at pH 7.4, pH 7.4, aqueous buffer, pH 7.4): ~0.7 µg/mL (≈ 1.5 µM)

SMILES: Cc1cc(C(=O)Nc2cc(Nc3ccc4c(/C=C/c5ccccn5)n[nH]c4c3)ccc2F)n(C)n1 [Form III, 2,5-Dimethyl-2H-pyrazole-3-carboxylic acid {2-fluoro-5-[3-((E)-2-pyridin-2-yl-vinyl)-1H-indazol-6-ylamino]-phenyl}-amide]
light stability [2]: light-stable | aqueous solubility ([3]; pH 2): about 10 μg/mL | aqueous solubility ([3]; pH 7.4): about 0.6 μg/mL

SMILES: Cc1cc(C(=O)Nc2cc(Nc3ccc4c(/C=C/c5ccccn5)n[nH]c4c3)ccc2F)n(C)n1 [Form IV, 2,5-Dimethyl-2H-pyrazole-3-carboxylic acid {2-fluoro-5-[3-((E)-2-pyridin-2-yl-vinyl)-1H-indazol-6-ylamino]-phenyl}-amide]
light stability [2]: light-stable | solubility [3, 5]: ~7 µg/mL (≈ 15 µM)

SMILES: Cc1cc(C(=O)Nc2cc(Nc3ccc4c(/C=C/c5ccccn5)n[nH]c4c3)ccc2F)n(C)n1 [Form Ib, 2,5-Dimethyl-2H-pyrazole-3-carboxylic acid {2-fluoro-5-[3-((E)-2-pyridin-2-yl-vinyl)-1H-indazol-6-ylamino]-phenyl}-amide]
physical and chemical stability ([1]; 60° C. and 40° C./75% RH): physically and chemically stable for at least three months

SMILES: Cc1cc(C(=O)Nc2cc(Nc3ccc4c(/C=C/c5ccccn5)n[nH]c4c3)ccc2F)n(C)n1 [Form Ibm-2, 2,5-Dimethyl-2H-pyrazole-3-carboxylic acid {2-fluoro-5-[3-((E)-2-pyridin-2-yl-vinyl)-1H-indazol-6-ylamino]-phenyl}-amide]
conversion of solid form [4]: will convert to Form Ib upon complete hydration

The next lines start with the values.

light stability [2]: light-stable
SMILES: Cc1cc(C(=O)Nc2cc(Nc3ccc4c(/C=C/c5ccccn5)n[nH]c4c3)ccc2F)n(C)n1 [Form Ia, 2,5-Dimethyl-2H-pyrazole-3-carboxylic acid {2-fluoro-5-[3-((E)-2-pyridin-2-yl-vinyl)-1H-indazol-6-ylamino]-phenyl}-amide]

light stability [2]: light-stable | solubility ([3]; aqueous medium, pH 2, aqueous buffer, pH 2): ~8 µg/mL (≈ 17.1 µM) | aqueous solubility ([3]; pH 7.4): about 0.2 μg/mL
SMILES: Cc1cc(C(=O)Nc2cc(Nc3ccc4c(/C=C/c5ccccn5)n[nH]c4c3)ccc2F)n(C)n1 [Form V, 2,5-Dimethyl-2H-pyrazole-3-carboxylic acid {2-fluoro-5-[3-((E)-2-pyridin-2-yl-vinyl)-1H-indazol-6-ylamino]-phenyl}-amide]

hygroscopicity [4]: very hygroscopic | conversion of solid form [4]: readily converted back to Form Ib
SMILES: Cc1cc(C(=O)Nc2cc(Nc3ccc4c(/C=C/c5ccccn5)n[nH]c4c3)ccc2F)n(C)n1 [Form VI, 2,5-Dimethyl-2H-pyrazole-3-carboxylic acid {2-fluoro-5-[3-((E)-2-pyridin-2-yl-vinyl)-1H-indazol-6-ylamino]-phenyl}-amide]
